# Reference: PubChem BioAssay AID1845217 (Molecular Pharmacology Branch, DTP, NCI, 2023)
# “And” between values parts separate entries of the source, which are not always exact repeats. Equal values may be shown once. The source made the active and inactive calls. Rule for the calls: active = viability on the fitted dose curve at most 10% of control; inactive = the rest.
# Tested on: VA-ES-BJ tumor spheroid viability
# Assay: Anticancer human tumor VA-ES-BJ cell line growth inhibition;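 for IC50: spheroids exposed to compounds for seven days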;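 for viability, T/C: spheroids exposed to compounds for seven days; percent of DMSO vehicle control viability so 100% = untreated growth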
# Settings: spheroids with HUVEC and MSC; for viability, T/C: stronger effect = lower value
# In short: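 Single agents and combinations were tested on spheroids built from tumor cells plus HUVEC and hMSC, at half-log dilutions starting at or near clinical Cmax, else 10 microM; final DMSO 0.25% (v/v).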
compound,measurement,setting,value
CNCc1ccc(-c2cc(-c3nc(-c4ccc(S(=O)(=O)C(C)C)cc4)cnc3N)on2)cc1 + Cn1nnc2c(C(N)=O)ncn2c1=O,IC50,"curve of first compound, second compound 1 µM",404 nM
same,IC50,"curve of first compound, second compound 3.16 µM",370 nM
same,IC50,"curve of first compound, second compound 10 µM",339 nM
same,IC50,"curve of first compound, second compound 31.6 µM",289 nM
same,IC50,"curve of first compound, second compound 100 µM",188 nM
same,"viability, T/C","second compound 1 µM, first compound 0.00949 µM",87.8%
same,"viability, T/C","second compound 1 µM, first compound 0.03 µM",82%
same,"viability, T/C","second compound 1 µM, first compound 0.0949 µM",84%
same,"viability, T/C","second compound 1 µM, first compound 0.3 µM",63.3%
same,"viability, T/C","second compound 1 µM, first compound 0.949 µM",11.8%
same,"viability, T/C","second compound 1 µM, first compound 3 µM",2.45%
same,"viability, T/C","second compound 3.16 µM, first compound 0.00949 µM",85.5%
same,"viability, T/C","second compound 3.16 µM, first compound 0.03 µM",85.3%
same,"viability, T/C","second compound 3.16 µM, first compound 0.0949 µM",74.4%
same,"viability, T/C","second compound 3.16 µM, first compound 0.3 µM",59.9%
same,"viability, T/C","second compound 3.16 µM, first compound 0.949 µM",12.8%
same,"viability, T/C","second compound 3.16 µM, first compound 3 µM",1.99%
same,"viability, T/C","second compound 10 µM, first compound 0.00949 µM",86.9%
same,"viability, T/C","second compound 10 µM, first compound 0.03 µM",92.2%
same,"viability, T/C","second compound 10 µM, first compound 0.0949 µM",79.1%
same,"viability, T/C","second compound 10 µM, first compound 0.3 µM",56.1%
same,"viability, T/C","second compound 10 µM, first compound 0.949 µM",10.4%
same,"viability, T/C","second compound 10 µM, first compound 3 µM",2.81%
same,"viability, T/C","second compound 31.6 µM, first compound 0.00949 µM",91.1%
same,"viability, T/C","second compound 31.6 µM, first compound 0.03 µM",85%
same,"viability, T/C","second compound 31.6 µM, first compound 0.0949 µM",72.7%
same,"viability, T/C","second compound 31.6 µM, first compound 0.3 µM",53.5%
same,"viability, T/C","second compound 31.6 µM, first compound 0.949 µM",10.2%
same,"viability, T/C","second compound 31.6 µM, first compound 3 µM",3.57%
same,"viability, T/C","second compound 100 µM, first compound 0.00949 µM",95.6%
same,"viability, T/C","second compound 100 µM, first compound 0.03 µM",76.7%
same,"viability, T/C","second compound 100 µM, first compound 0.0949 µM",68%
same,"viability, T/C","second compound 100 µM, first compound 0.3 µM",41.7%
same,"viability, T/C","second compound 100 µM, first compound 0.949 µM",11.7%
same,"viability, T/C","second compound 100 µM, first compound 3 µM",2.21%
Cc1cc(C)c(CNC(=O)c2cc(-c3ccc(CN4CCOCC4)cc3)cc3c2cnn3C2CCCC2)c(=O)[nH]1 + CC[C@@]1(O)C(=O)OCc2c1cc1n(c2=O)Cc2cc3c(CN(C)C)c(O)ccc3nc2-1,IC50,"curve of first compound, second compound 0.003 µM",> 10000 nM
same,IC50,"curve of first compound, second compound 0.00949 µM",> 10000 nM
same,IC50,"curve of first compound, second compound 0.03 µM",< 31.6 nM
same,IC50,"curve of first compound, second compound 0.0949 µM",< 31.6 nM
same,IC50,"curve of first compound, second compound 0.3 µM",< 31.6 nM
same,"viability, T/C","second compound 0.003 µM, first compound 0.0316 µM",92.3%
same,"viability, T/C","second compound 0.003 µM, first compound 0.1 µM",98%
same,"viability, T/C","second compound 0.003 µM, first compound 0.316 µM",95%
same,"viability, T/C","second compound 0.003 µM, first compound 1 µM",98.9%
same,"viability, T/C","second compound 0.003 µM, first compound 3.16 µM",103%
same,"viability, T/C","second compound 0.003 µM, first compound 10 µM",94.8%
same,"viability, T/C","second compound 0.00949 µM, first compound 0.0316 µM",74.2%
same,"viability, T/C","second compound 0.00949 µM, first compound 0.1 µM",84%
same,"viability, T/C","second compound 0.00949 µM, first compound 0.316 µM",93.5%
same,"viability, T/C","second compound 0.00949 µM, first compound 1 µM",90%
same,"viability, T/C","second compound 0.00949 µM, first compound 3.16 µM",86.5%
same,"viability, T/C","second compound 0.00949 µM, first compound 10 µM",62.1%
same,"viability, T/C","second compound 0.03 µM, first compound 0.0316 µM",37.3%
same,"viability, T/C","second compound 0.03 µM, first compound 0.1 µM",39%
same,"viability, T/C","second compound 0.03 µM, first compound 0.316 µM",37.3%
same,"viability, T/C","second compound 0.03 µM, first compound 1 µM",36.1%
same,"viability, T/C","second compound 0.03 µM, first compound 3.16 µM",38.2%
same,"viability, T/C","second compound 0.03 µM, first compound 10 µM",44%
same,"viability, T/C","second compound 0.0949 µM, first compound 0.0316 µM",5.21%
same,"viability, T/C","second compound 0.0949 µM, first compound 0.1 µM",5.14%
same,"viability, T/C","second compound 0.0949 µM, first compound 0.316 µM",5.02%
same,"viability, T/C","second compound 0.0949 µM, first compound 1 µM",5.85%
same,"viability, T/C","second compound 0.0949 µM, first compound 3.16 µM",5.97%
same,"viability, T/C","second compound 0.0949 µM, first compound 10 µM",6.03%
same,"viability, T/C","second compound 0.3 µM, first compound 0.0316 µM",5.75%
same,"viability, T/C","second compound 0.3 µM, first compound 0.1 µM",5.52%
same,"viability, T/C","second compound 0.3 µM, first compound 0.316 µM",4.6%
same,"viability, T/C","second compound 0.3 µM, first compound 1 µM",5.28%
same,"viability, T/C","second compound 0.3 µM, first compound 3.16 µM",5.46%
same,"viability, T/C","second compound 0.3 µM, first compound 10 µM",5.71%
COc1cc(C)[nH]c(=O)c1CN1CCc2c(Cl)cc(C(OC)C3COC3)c(Cl)c2C1=O (stereo not drawn),"viability, T/C",compound 0.0316 µM,90.1% and 94.4%
same,outcome,compound 0.0316 µM,inactive
same,"viability, T/C",compound 0.1 µM,60.6% and 79.6% and 86.1%
same,"viability, T/C",compound 0.316 µM,62.8% and 67% and 69.9%
same,"viability, T/C",compound 1 µM,50.1% and 56.3% and 63.1%
same,"viability, T/C",compound 3.16 µM,44.1% and 54.4% and 58.9%
same,"viability, T/C",compound 10 µM,41.7% and 49.4% and 52.7%
same,IC50,curve of compound,1550 nM and > 10000 nM
